Here are results for five molecules from patent EP0488224A2, “Fermentationproduct of a Verticimonosporium strain and feed additivs containing a linear peptide” (MITSUBISHI KASEI CORPORATION, priority 1990, dated 1992).

In data set [1] the test system is Caenorhabditis elegans. Put plainly: Anti-nematode activity (1): growth and motility of nematodes in suspension. Also on record: key: 5 scales, - ±, +, ++ and +++; 5 scales, - ±, +, ++ and +++; 5 scales, - ±, +, ++ and +++; 5 scales, - ±, +, ++ and +++; 5 scales, - ±, +, ++ and +++. The conditions noted are these: 12.5 ppm, 20 °C, one week. Format: cell-based. On the procedure: Anti-nematode activity of substance MBA090-18 was evaluated using Caenorhabditis elegans, a soil […] nematode.
Caenorhabditis elegans was suspended into sterilized water at the density of 20 - 30 heads/100 µl. To the suspension was added substance MBA090-18 at the concentration of 12.5 ppm. The mixture was incubated at 20 °C for one week while the growth and motility of nematodes being observed. […] The anti-nematode activity was evaluated and expressed according to the following 5 scales, - ±, +, ++ and +++.

Data set [2] is described as follows: Acute toxicity on oral administration. It is filed as in vivo. The note with it: five male mouse. Here is the method: The acute toxicity of substance MBA090-18 was determined using five male mouse on oral administration.
The conditions of data set [3]: value from a literature; cited from earlier work.
Data set [4] relates to rumen fermentation. Kind of data set: Effect on feed efficiency in vivo (rumen content of a goat given feed additive). The note with it: 80 mg/day in feed, percentage to control (100). Here is the method:
The effect of linear peptide compounds on the feed effeciency was evaluated in vivo using a ruminant animal.
A goat (a native species of Japan, 25 Kg) equipped with rumen fistula was used. As a feed additive, either of linear peptide compounds, MBA090-18 and gramicidin D, was administered to the animal. The rumen content was collected through the fistula and subjected to the assay in the same manner as described in the above Experiment 4 to obtain the total amount of VFAs, the production ratio of propionic acid to acetic acid (PA/AA) and the number of survival protozoas. In the table, values are shown as the percentage to the control values (100) obtained by keeping animal with the same feed ration to which neither of test compounds has been added.

Data set [5] relates to rumen bacterial solution. Kind of data set: Effect on digestion of cellulose by rumen bacterial solution. Also on record: species or system goat. The conditions noted are these: 5 µg/ml, 37 °C, 3 days; 0 µg/ml control 72. On the procedure:
The effect of substance MBA090-18 on the digestion of cellulose in the rumen was evaluated.
A goat (a native species of Japan, 20 Kg) equipped with rumen fistula was again used. A preparation of rumen bacterial solution was prepared by collecting the rumen content through the fistula, followed by a prompt centrifugation at 3000 rpm for 10 min to remove feed debris and protozoa.
To the 10 ml of the bacterial solution was added 50 ml of a basal medium described in the above Experiment 3 except that 0.4 g of cellulose powder and 6 mg of vitamin mixture are supplemented. The flask is then sealed anaerobically under CO₂ gas and incubated at 37 °C for 3 days. When the incubation finished, the cultured broth was assayed about the digestion of cellulose.

Read-outs that look alike come from different tables or passages of the source.

On to `CN[C@H]1C[C@@H](N)[C@H](O)[C@@H](O[C@@H]2O[C@H](CO)[C@H](O)[C@@H]3OC4(O[C@H]23)O[C@H]([C@@H](N)CO)[C@H](O)[C@H](O)[C@H]4O)[C@@H]1O` (some centres unmarked) [Hygromycin B], for which, in data set [1], the “Antinematode Activity growth” value is “++” and the “Antinematode Activity mobility” value was “±”.
For `CC[C@@H](C(=O)[C@@H](C)[C@@H](O)[C@H](C)[C@@H]1O[C@@H]([C@@H](CC)C(=O)O)CC[C@@H]1C)[C@H]1O[C@]2(C=C[C@@H](O)[C@]3(CC[C@@](C)([C@H]4CC[C@](O)(CC)[C@H](C)O4)O3)O2)[C@H](C)C[C@@H]1C` [Salinomysin], the acute toxicity in data set [2] is recorded as 50 mg/kg.
In the case of Avermectin, in data set [1], the “Antinematode Activity growth” value was “+++” and the “Antinematode Activity mobility” value is “+++”. The acute toxicity in data set [3] was 35 mg/kg.
With Gramicidin D, the “total VFAs (%)” value in data set [4] is reported as 103%. Besides, the “PA/AA (%)” value in data set [4] (propionic acid to acetic acid) is given as 125%. The “Protozoa (%)” value in data set [4] (surviving protozoa) is given as 86%.
In data set [2], Monensin had an acute toxicity of 43.8 mg/kg. Further, the “Digestion Rate of Cellulose (%)” value in data set [5] is reported as 10%.
